From US8282688B2, “Laccase mediators and methods of use” (Danisco US Inc., priority 2006, dated 2012)
Several values for one entry are separate records, joined by “and”; a condition that tells them apart may be missing. Identical values can stand only once. Blank lines part the entries; values can stand above or below the molecule they belong to.

How the values were obtained:
Type in all cases: biochemical
[1] = test system: Thielavia laccase (Ecostone LCC10); assay: Soluble indigo bleaching at two pH values, Thielavia laccase (Example 3)
Method: (§1) A saturated solution of indigo in N-methylpyrrolidone (NMP) was prepared by stirring indigo (30 mg) in NMP (10 ml) at room temperature for 5 hours. The NMP solution was diluted 10-fold into an aqueous buffer solution resulting in a blue solution. For example, dilution into 50 mM sodium acetate buffer at pH 5, or 50 mM sodium phosphate buffer at pH 7. Solutions were shaken well immediately before use.
(§2) The assay for the bleaching of the solubilized indigo substrate was performed in a 96-well microtitre plate whereby each well received the soluble indigo solution in 50 mM sodium acetate buffer at pH 5 (180 uL), laccase (10 ppm enzyme) and mediator solution (from a 20 mM stock solution in methanol). The total volume of each well was adjusted to 200 uL with deionzed water. A control containing laccase only was run in duplicate. The plate was sealed and incubated at 50° C. for 2 hours at 800 rpm on a heated agitator (Thermomixer, Eppendorf). Following this period, the plates were unsealed and a solution of ascorbic acid (20 uL of a 10% aqueous solution) added to each well in order to reduce the oxidized forms of the mediators. The extent of indigo bleaching was then assessed by determining the absorbance for each well at 600 nm using a microtitre plate reader. The lower the absorbance reading, the greater the extent of indigo bleaching.
(§3) Laccases derived from Myceliophtora (Denilite® II, Novozymes, Bagsvaerd, Denmark), Thielavia (Ecostone LCC10, AB enzymes, Darmstadt, Germany) and Cerrena sp. were assessed for their ability to bleach solubilized indigo in conjunction with low molecular weight mediators at two pH values.
(§4) Bleaching of solubilized indigo in 96-well microtitre plates was performed as described in Example 1, using 3 different laccases at pH values of 5 and 7.

[2] = test system: Myceliophtora laccase (Denilite II); assay: Soluble indigo bleaching at two pH values, Myceliophtora laccase (Example 3)
Method: as §1, §2, §3, §4

Cerrena sp. laccase = assay: Soluble indigo bleaching at two pH values, Cerrena sp. laccase (Example 3)
Method: as §1, §2, §3, §4

[3] = test system: Thielavia sp. laccase (Ecostone LCC10); assay: Bleaching of solubilized indigo, Thielavia sp. laccase with mediators (Example 2); details: for ΔA600 (change in absorbance at 600 nm relative to control): laccase 10 ppm, pH 5, 50° C., 2 hours, n = 2
Method: An assay for the bleaching of the solubilized indigo substrate by laccase/mediator combinations was performed in a 96-well microtitre plate as follows
as §1, §2

C. unicolor laccase = assay: Bleaching of denim swatches with C. unicolor laccase (Example 4); parameters: key to ΔL Denim swatch Frontside / Δb Denim swatch Frontside / ΔL Denim swatch Backside / Δb Denim swatch Backside / Δa Denim swatch Backside / Δa Denim swatch Frontside: difference between initial and final CIE L*a*b* values; key to ΔE (total color difference) Denim swatch Backside / ΔE (total color difference) Denim swatch Frontside: ΔE = (ΔL²+Δa²+Δb²)^1/2 from CIE L*a*b* before/after bleaching
Method: Denim legs (made out of sulfur bottom/indigo dyed denim fabric from Cone Mill, style number 1662P) were pretreated with IndiAge® 2XL at a dose of 1 gram per liter in a 50 lb lab scale tumbling washer. The liquor ratio was 6 to 1 (5 kg substrate in 30 liters of water) and the treatment was performed at 55° C. at pH 4.5 for 1 hour. A warm rinse followed the cellulase treatment, after which the fabric was dried in a tumble dryer. A punch press was used to cut ⅝ inch denim disks from IndiAge® 2XL pretreated denim legs. Each denim disk is pre read with a Chroma Meter CR-200 by Minolta in order to determine the CIE L*a*b* values of both the front and backside of the fabric disk.
One denim disk is placed in each well of two duplicate 12 well micro-titer plates. Each well received C. unicolor laccase (20 uL of 1/20 dilution, approx. 20 ppm), mediator (200, 100, 50 or 20 uL of a 20 mM stock solution in methanol) and 50 mM potassium phosphate buffer, pH 6 for a total volume of 2 mL/well. The mediators were methyl syringate (MS), 4-cyano-2,6-dimethoxyphenol (SN) and 3,4,5-trimethoxyphenol (TMP). The plates were sealed and incubated at 50° C. for 2 hours at 150 rpm in a standard incubator. Following this period, the swatches were removed from the plates and carefully placed on a filter paper in a Buchner funnel and washed with copious amounts of water, followed by drying of the residual water under high vacuum overnight. The swatches were then re-read with the chromometer in order to determine the CIE L*a*b* values of both the front and backside of the disk following bleaching. The total color difference (ΔE) is calculated from the difference between the initial and final CIE L*a*b* values according to the formula ΔE=(ΔL^2+Δa^2+Δb^2)^1/2 The total color differences (ΔE) as a function of mediator concentration are plotted in FIGS. 5 and 6.

[4] = lower mediator concentration of 50 uM
[5] = mediator 50 mM Concentration (head)
[6] = mediator 500 mM Concentration (head)
[7] = mediator 200 uM, laccase 20 ppm, pH 6, 50° C., 2 hours
[8] = mediator 500 uM, laccase 20 ppm, pH 6, 50° C., 2 hours
[9] = mediator 1000 uM, laccase 20 ppm, pH 6, 50° C., 2 hours

ΔA600 Thielavia ([1]; pH 5, mediator 250 uM): 0.100
ΔA600 Thielavia ([1]; pH 7, mediator 250 uM): 0.087
ΔA600 Myceliophtora ([2]; pH 5, mediator 250 uM): 0.117
ΔA600 Myceliophtora ([2]; pH 7, mediator 250 uM): 0.078
ΔA600 Cerrena (Cerrena sp. laccase; pH 5, mediator 250 uM): 0.028
ΔA600 Cerrena (Cerrena sp. laccase; pH 7, mediator 250 uM): 0.077
Compound: COC(=O)c1cc(OC)c(OC(C)=O)c(OC)c1 [AMS, methyl 4-acetyl syringate]

ΔA600 (change in absorbance at 600 nm relative to control) [3, 5]: 0.103
ΔA600 (change in absorbance at 600 nm relative to control) [3, 6]: 0.181
Compound: CNC(=O)c1cc(OC)c(O)c(OC)c1 [MSA, 4-(N-methylcarboxamido)-2,6-dimethoxyphenol]

ΔA600 (change in absorbance at 600 nm relative to control) [3, 5]: 0.005
ΔA600 (change in absorbance at 600 nm relative to control) [3, 6]: 0.024
Compound: COc1cc(C(=O)O)cc(OC)c1O [Syringic acid, syringic acid]
effectiveness as mediator for indigo bleaching [3, 4]: no more effectively than the control condition

Further lines, the molecule ahead of its results:

Compound: COc1cc(C=CC(=O)O)cc(OC)c1O (stereo in doubt) [Sinapinic acid, sinapinic acid]
ΔA600 Thielavia ([1]; pH 5, mediator 250 uM): 0.068
ΔA600 Thielavia ([1]; pH 7, mediator 250 uM): 0.112
ΔA600 Myceliophtora ([2]; pH 5, mediator 250 uM): 0.157
ΔA600 Myceliophtora ([2]; pH 7, mediator 250 uM): 0.204
ΔA600 Cerrena (Cerrena sp. laccase; pH 5, mediator 250 uM): 0.240
ΔA600 Cerrena (Cerrena sp. laccase; pH 7, mediator 250 uM): 0.257

Compound: CCn1c(=NN=c2sc3cc(S(=O)(=O)O)ccc3n2CC)sc2cc(S(=O)(=O)O)ccc21 [ABTS]
effectiveness as mediator for indigo bleaching [3, 4]: most effective mediator
ΔA600 (change in absorbance at 600 nm relative to control) [3, 5]: 0.174
ΔA600 (change in absorbance at 600 nm relative to control) [3, 6]: 0.235
effectiveness as mediator for indigo bleaching ([3]; mediator concentration of 500 uM): most effective mediator
ΔA600 Thielavia ([1]; pH 5, mediator 250 uM): 0.234
ΔA600 Thielavia ([1]; pH 7, mediator 250 uM): 0.145
ΔA600 Myceliophtora ([2]; pH 5, mediator 250 uM): 0.267
ΔA600 Myceliophtora ([2]; pH 7, mediator 250 uM): 0.155
ΔA600 Cerrena (Cerrena sp. laccase; pH 5, mediator 250 uM): 0.329
ΔA600 Cerrena (Cerrena sp. laccase; pH 7, mediator 250 uM): 0.215

Compound: O=C(O)CCCN1c2ccccc2Sc2ccccc21 [PTP, 10-(carboxypropyl)-phenothiazine]
ΔA600 (change in absorbance at 600 nm relative to control) [3, 5]: 0.132
ΔA600 (change in absorbance at 600 nm relative to control) [3, 6]: 0.044

Compound: COc1cc(C=O)cc(OC)c1O [Syringaldehyde, syringaldehyde]
ΔA600 (change in absorbance at 600 nm relative to control) [3, 5]: 0.092
ΔA600 (change in absorbance at 600 nm relative to control) [3, 6]: 0.132

Compound: COc1cc(O)cc(OC)c1OC [TMP, 3,4,5-trimethoxyphenol, reference compound]
effectiveness as mediator for denim swatch bleaching (C. unicolor laccase; C. unicolor laccase 20 ppm, 200-2000 uM mediator): not an effective mediator
ΔE (total color difference) Denim swatch Backside (C. unicolor laccase; [7]): 0.35 and 0.57
ΔE (total color difference) Denim swatch Frontside (C. unicolor laccase; [7]): 0.96 and 0.77
Δa Denim swatch Frontside (C. unicolor laccase; [7]): 0.29 and 0.33
ΔE (total color difference) Denim swatch Backside (C. unicolor laccase; [8]): 0.51 and 0.30
ΔE (total color difference) Denim swatch Frontside (C. unicolor laccase; [8]): 0.64 and 0.63
ΔL Denim swatch Frontside (C. unicolor laccase; [8]): −0.61
ΔE (total color difference) Denim swatch Backside (C. unicolor laccase; [9]): 0.45 and 0.51
ΔE (total color difference) Denim swatch Frontside (C. unicolor laccase; [9]): 0.51 and 0.46
Δa Denim swatch Backside (C. unicolor laccase; [9]): 0.22 and 0.12
ΔE (total color difference) Denim swatch Backside (C. unicolor laccase; mediator 2000 uM, laccase 20 ppm, pH 6, 50° C., 2 hours): 0.34
